Experimental findings from patent publication US10138255B2, “Piperazine derivatives as HIV protease inhibitors” (Merck Sharp & Dohme Corp., priority 2014, dated 2018) are described below.

The subject of the assay is HIV-1 (H9IIIB strain). The experiment in a line: Cell-Based HIV Infection Assay Using a Reporter (MT4-GFP cells). The note with it: Human immunodeficiency virus 1, inflection point (IP) of viral growth inhibition; MT4-GFP cells infected with HIV-1 H9IIIB; 50% normal human serum; mean of at least two independent experiments; read-out: Cell Based IP (50% NHS). Put shortly: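 Inflection point from a 4-parameter curve of % viral growth inhibition, normalised to DMSO and triple-drug controls, using the 48 h/24 h ratio of GFP-positive cells (R0). MT4-GFP cells pre-infected 24 h with HIV-1 H9IIIB at low MOI; compounds tested in 50% normal human serum, 0.4% DMSO; mean of ≥2 experiments.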

Turning to `CC1(C)C[C@H]([C@H](c2ccc(Cl)cc2)[C@H](N)C(=O)Nc2cccc(F)c2CC[C@H]2CN[C@@H]3CCS(=O)(=O)N2C3)CCO1` [Example 275, (2S,3R)-2-amino-3-(4-chlorophenyl)-3-((R)-2,2-dimethyltetrahydro-2H-pyran-4-yl)-N-(2-(2-((5R,8S)-2,2-dioxido-2-thia-1,6-diazabicyclo[3.3.1]nonan-8-yl)ethyl)-3-fluorophenyl)propanamide], the EC50 is 25 nM.

With `N[C@H](C(=O)Nc1cccc(F)c1CC[C@H]1CN[C@@H]2CCCS(=O)(=O)N1CC2)[C@@H](c1ccc(F)cc1)c1cc(F)cc(F)c1` [Example 276, (2S,3S)-2-Amino-3-(3,5-difluorophenyl)-N-(2-(2-((6R,9S)-2,2-dioxido-2-thia-1,7-diazabicyclo[4.3.2]undecan-9-yl)ethyl)-3-fluorophenyl)-3-(4-fluorophenyl)propanamide], the EC50 was 6.1 nM.

On to `COC(=O)N[C@H](C(=O)Nc1cccc(F)c1CC[C@H]1CN[C@@H]2CCCCS(=O)(=O)N1C2)[C@@H](c1ccc(F)cc1)c1cc(F)cc(F)c1` [Example 277, Methyl ((1S,2S)-1-(3,5-difluorophenyl)-3-((2-(2-((7R,10S)-2,2-dioxido-2-thia-1,8-diazabicyclo[5.3.1]undecan-10-yl)ethyl)-3-fluorophenyl)amino)-1-(4-fluorophenyl)-3-oxopropan-2-yl)carbamate], for which the EC50 amounted to 10 nM.
